Assay results as given in patent US20120184542A1, “PYRIDO PYRIMIDINES” (priority 2011, published 2012).
Where a name gives a salt, the structure may show the parent alone. Read-outs that look alike come from different tables or passages of the source.

Assays:
[1] = target: T1, Human DYRK1B (Homo sapiens, UniProt Q9Y463); assay: DYRK1B Kinase TR-FRET (IMAP-Tb) Assay; type: biochemical; conditions: TR-FRET (IMAP-Tb); ATP 70 μM; 37° C. 60 minutes; read-out: Enzyme IC50 (μM) DYRK1B
T1 construct: purchased Invitrogen PR8350B (former PV4649)
T1 sequence (Q9Y463 whole entry): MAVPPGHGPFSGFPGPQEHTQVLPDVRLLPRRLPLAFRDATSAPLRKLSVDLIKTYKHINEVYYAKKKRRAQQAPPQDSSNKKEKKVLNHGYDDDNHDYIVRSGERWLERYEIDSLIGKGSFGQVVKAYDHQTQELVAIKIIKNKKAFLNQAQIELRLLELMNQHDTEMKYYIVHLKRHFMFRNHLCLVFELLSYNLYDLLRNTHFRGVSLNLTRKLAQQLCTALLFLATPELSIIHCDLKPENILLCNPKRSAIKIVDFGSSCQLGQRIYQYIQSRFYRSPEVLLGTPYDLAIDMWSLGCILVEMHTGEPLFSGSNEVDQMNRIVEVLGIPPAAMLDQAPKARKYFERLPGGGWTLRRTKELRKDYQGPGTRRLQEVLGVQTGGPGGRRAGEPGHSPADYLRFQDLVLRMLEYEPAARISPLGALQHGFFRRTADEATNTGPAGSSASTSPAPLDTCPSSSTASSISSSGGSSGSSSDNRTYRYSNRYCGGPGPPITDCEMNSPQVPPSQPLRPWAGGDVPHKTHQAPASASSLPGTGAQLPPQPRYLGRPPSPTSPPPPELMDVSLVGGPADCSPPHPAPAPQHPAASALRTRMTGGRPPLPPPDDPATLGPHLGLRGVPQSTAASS

[2] = target: T2, Human DYRK1A (Homo sapiens, UniProt Q13627); assay: DYRK1A Kinase TR-FRET (IMAP-Tb) Assay; type: biochemical; conditions: TR-FRET (IMAP-Tb); ATP 70 μM; 37° C. 60 minutes; read-out: Enzyme IC50 (μM) DYRK1A
T2 construct: purchased Invitrogen PV3997
In short: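 Recombinant human DYRK1A phosphorylated fluorescent substrate peptide (1.0 μM) with ATP in 10 mM HEPES pH 7.0, 50 mM NaCl, 5 mM MgCl2, 1 mM DTT, 1 mM NaVO4, 0.02% BSA for 60 min at 37 °C. Phosphopeptide detected by IMAP terbium TR-FRET; IC50 reported.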

[3] = test system: SW620 human colon cancer cells; assay: SW620 Cell Viability Assay; type: cell-based; conditions: CellTiter-Glo, 4 days incubation, read-out: Cellular EC50 (μM) SW620
In short: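 SW620 human colon cancer cells, some attached 24 h then serum-starved 48 h before dosing; compounds prepared in serum-supplemented medium. Cells incubated with compound 4 days at 37 °C, 5% CO2, and viability measured by CellTiter-Glo luminescence.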

Row | SMILES | IC50 [1] [µM] | IC50 [2] [µM] | EC50 ([3]; Homo sapiens, SW-620, 96 h) [µM] | EC50 ([3]; hydrochloride) [µM]
1 | N[C@H]1CC[C@@H](Nc2ncc3cc(C(=O)Nc4cc(C(=O)NCc5cccc(Cl)c5)ccc4Cl)c(=O)[nH]c3n2)CC1 [Example 118, 2-((1s,4 s)-4-Aminocyclohexylamino)-N-(2-chloro-5-(3-chlorobenzylcarbamoyl)phenyl)-7-oxo-7,8-dihydropyrido[2,3-d]pyrimidine-6-carboxamide hydrochloride] | 0.0767 | 0.0569 | 0.438 | –
2 | O=C(NCc1cccc(Cl)c1)c1ccc(Cl)c(NC(=O)c2cc3cnc(N4CCNCC4)nc3[nH]c2=O)c1 [Example 119, N-(2-Chloro-5-(3-chlorobenzylcarbamoyl)phenyl)-7-oxo-2-(piperazin-1-yl)-7,8-dihydropyrido[2,3-d]pyrimidine-6-carboxamide hydrochloride] | 0.135 | 0.044 | 0.152 | –
3 | CN1CCN(CCCNc2ncc3cc(C(=O)Nc4cc(C(=O)NC(CN)c5ccccc5)ccc4Cl)c(=O)[nH]c3n2)CC1 (stereo not drawn) [Example 122, N-(5-(2-Amino-1-phenylethylcarbamoyl)-2-chlorophenyl)-2-(3-(4-methylpiperazin-1-yl)propylamino)-7-oxo-7,8-dihydropyrido[2,3-d]pyrimidine-6-carboxamide] | 0.009 | 0.012 | 0.359 | –
4 | CN1CCN(CCCNc2ncc3cc(C(=O)Nc4cc(C(=O)NC(CN)c5ccccc5)ccc4Cl)c(=O)[nH]c3n2)CC1 (stereo not drawn) [Example 123, N-(5-(2-Amino-1-phenylethylcarbamoyl)-2-chlorophenyl)-2-(3-(4-methylpiperazin-1-yl)propylamino)-7-oxo-7,8-dihydropyrido[2,3-d]pyrimidine-6-carboxamide hydrochloride] | 0.0082 | 0.0067 | – | 0.319
5 | CC1(C)OCC(CNc2ncc3cc(C(=O)Nc4cc(C(=O)NCc5cccc(Cl)c5)ccc4Cl)c(=O)[nH]c3n2)O1 (stereo not drawn) [Example 124, N-(2-Chloro-5-(3-chlorobenzylcarbamoyl)phenyl)-2-((2,2-dimethyl-1,3-dioxolan-4-yl)methylamino)-7-oxo-7,8-dihydropyrido[2,3-d]pyrimidine-6-carboxamide] | 0.107 | 0.113 | > 10 | –
6 | O=C(NCc1cccc(Cl)c1)c1ccc(Cl)c(NC(=O)c2cc3cnc(NC4CCNCC4)nc3[nH]c2=O)c1 [Example 125, N-(2-Chloro-5-(3-chlorobenzylcarbamoyl)phenyl)-7-oxo-2-(piperidin-4-ylamino)-7,8-dihydropyrido[2,3-d]pyrimidine-6-carboxamide hydrochloride] | 0.206 | 0.0303 | 1.5 | –
7 | O=C(NCc1cccc(Cl)c1)c1ccc(Cl)c(NC(=O)c2cc3cnc(NCC(O)CO)nc3[nH]c2=O)c1 (stereo not drawn) [Example 126, N-(2-Chloro-5-(3-chlorobenzylcarbamoyl)phenyl)-2-(2,3-dihydroxypropylamino)-7-oxo-7,8-dihydropyrido[2,3-d]pyrimidine-6-carboxamide] | 0.059 | 0.0197 | > 10 | –
8 | CC(C)(O)CNc1ncc2cc(C(=O)Nc3cc(C(=O)NCc4cccc(Cl)c4)ccc3Cl)c(=O)[nH]c2n1 [Example 127, N-(2-Chloro-5-(3-chlorobenzylcarbamoyl)phenyl)-2-(2-hydroxy-2-methylpropylamino)-7-oxo-7,8-dihydropyrido[2,3-d]pyrimidine-6-carboxamide] | 0.086 | 0.0223 | 0.165 | –
9 | COc1ncc2cc(C(=O)Nc3cc(C(=O)N[C@@H](CN)c4cccc(Cl)c4)ccc3Cl)c(=O)[nH]c2n1 [Example 134, 2-Methoxy-7-oxo-7,8-dihydro-pyrido[2,3-d]pyrimidine-6-carboxylic acid {5-[(R)-2-amino-1-(3-chloro-phenyl)-ethylcarbamoyl]-2-chloro-phenyl}-amide] | 1.98 | 0.481 | 7.57 | –
10 | COc1ncc2cc(C(=O)Nc3cc(C(=O)N[C@H](CN)c4cccc(Cl)c4)ccc3Cl)c(=O)[nH]c2n1 [Example 135, 2-Methoxy-7-oxo-7,8-dihydro-pyrido[2,3-d]pyrimidine-6-carboxylic acid {5-[(S)-2-amino-1-(3-chloro-phenyl)-ethylcarbamoyl]-2-chloro-phenyl}-amide] | 0.0457 | 0.0109 | 0.523 | –
11 | NCC(NC(=O)c1ccc(Cl)c(NC(=O)c2cc3cnc(N4CCC(N)CC4)nc3[nH]c2=O)c1)c1ccccc1 (stereo not drawn) [Example 138, N-(5-(2-Amino-1-phenylethylcarbamoyl)-2-chlorophenyl)-2-(4-aminopiperidin-1-yl)-7-oxo-7,8-dihydropyrido[2,3-d]pyrimidine-6-carboxamide hydrochloride] | 0.0319 | 0.0184 | 2.9 | –
12 | CN1CCN(CCNc2ncc3cc(C(=O)Nc4cc(C(=O)NC(CN)c5ccccc5)ccc4Cl)c(=O)[nH]c3n2)CC1 (stereo not drawn) [Example 139, N-(5-(2-Amino-1-phenylethylcarbamoyl)-2-chlorophenyl)-2-(2-(4-methylpiperazin-1-yl)ethylamino)-7-oxo-7,8-dihydropyrido[2,3-d]pyrimidine-6-carboxamide hydrochloride] | 0.019 | 0.006 | 0.396 | –
13 | CSc1ncc2cc(C(=O)Nc3cc(C(=O)NC(CO)c4ccccc4)ccc3Cl)c(=O)[nH]c2n1 (stereo not drawn) [Example 140, N-(2-Chloro-5-(2-hydroxy-1-phenylethylcarbamoyl)phenyl)-2-(methylthio)-7-oxo-7,8-dihydropyrido[2,3-d]pyrimidine-6-carboxamide] | 0.17 | 0.073 | 3.07 | –
14 | CSc1ncc2cc(C(=O)Nc3cc(C(=O)NC(CCO)c4ccccc4)ccc3Cl)c(=O)[nH]c2n1 (stereo not drawn) [Example 141, N-(2-Chloro-5-(3-hydroxy-1-phenylpropylcarbamoyl)phenyl)-2-(methylthio)-7-oxo-7,8-dihydropyrido[2,3-d]pyrimidine-6-carboxamide] | 0.12 | 0.101 | 2.39 | –
15 | NC1CCN(c2ncc3cc(C(=O)Nc4cc(C(=O)NC(CO)c5ccccc5)ccc4Cl)c(=O)[nH]c3n2)CC1 (stereo not drawn) [Example 147, 2-(4-Aminopiperidin-1-yl)-N-(2-chloro-5-(2-hydroxy-1-phenylethylcarbamoyl)phenyl)-7-oxo-7,8-dihydropyrido[2,3-d]pyrimidine-6-carboxamide hydrochloride] | 0.483 | 0.194 | 1.44 | –
16 | NC1CCN(c2ncc3cc(C(=O)Nc4cc(C(=O)NC(CCO)c5ccccc5)ccc4Cl)c(=O)[nH]c3n2)CC1 (stereo not drawn) [Example 148, 2-(4-Aminopiperidin-1-yl)-N-(2-chloro-5-(3-hydroxy-1-phenylpropylcarbamoyl)phenyl)-7-oxo-7,8-dihydropyrido[2,3-d]pyrimidine-6-carboxamide hydrochloride] | 0.321 | 0.15 | 0.069 | –
17 | NCC(NC(=O)c1ccc(Cl)c(NC(=O)c2cc3cncnc3[nH]c2=O)c1)c1ccccc1 (stereo not drawn) [Example 151, N-(5-(2-Amino-1-phenylethylcarbamoyl)-2-chlorophenyl)-7-oxo-7,8-dihydropyrido[2,3-d]pyrimidine-6-carboxamide hydrochloride] | 0.096 | 0.061 | 4.26 | –
18 | NCCC(NC(=O)c1ccc(Cl)c(NC(=O)c2cc3cncnc3[nH]c2=O)c1)c1ccccc1 (stereo not drawn) [Example 152, N-(5-(3-Amino-1-phenylpropylcarbamoyl)-2-chlorophenyl)-7-oxo-7,8-dihydropyrido[2,3-d]pyrimidine-6-carboxamide hydrochloride] | 0.033 | 0.066 | 2.68 | –
19 | COc1ncc2cc(C(=O)Nc3cc(C(=O)N[C@H](CCO)c4ccccc4)ccc3Cl)c(=O)[nH]c2n1 [Example 158, (R)—N-(2-Chloro-5-(3-hydroxy-1-phenylpropylcarbamoyl)phenyl)-2-methoxy-7-oxo-7,8-dihydropyrido[2,3-d]pyrimidine-6-carboxamide] | 0.082 | 0.037 | 1.71 | –
20 | NCCC(NC(=O)c1cc(NC(=O)c2cc3cnc(N4CCOCC4)nc3[nH]c2=O)c(Cl)cc1F)c1cccc(Cl)c1 (stereo not drawn) [Example 160, 2-Morpholin-4-yl-7-oxo-7,8-dihydro-pyrido[2,3-d]pyrimidine-6-carboxylic acid {5-[3-amino-1-(3-chloro-phenyl)-propylcarbamoyl]-2-chloro-4-fluoro-phenyl}-amide] | 0.0932 | 0.0532 | 0.219 | –
21 | O=C(NCc1cccc(F)c1)c1ccc(Cl)c(NC(=O)c2cc3cnc(N4CCOCC4)nc3[nH]c2=O)c1 [Example 161, 2-Morpholin-4-yl-7-oxo-7,8-dihydro-pyrido[2,3-d]pyrimidine-6-carboxylic acid [2-chloro-5-(3-fluoro-benzylcarbamoyl)-phenyl]-amide] | 0.0472 | 0.0462 | > 10 | –
22 | O=C(NCc1cccc(F)c1)c1cc(NC(=O)c2cc3cnc(N4CCOCC4)nc3[nH]c2=O)c(Cl)cc1F [Example 162, 2-Morpholin-4-yl-7-oxo-7,8-dihydro-pyrido[2,3-d]pyrimidine-6-carboxylic acid [2-chloro-4-fluoro-5-(3-fluoro-benzylcarbamoyl)-phenyl]-amide] | 0.135 | 0.0432 | > 10 | –
